Reference: US20050009834A1, “Azole compounds, process for preparation of the same and use thereof” (priority 2001, published 2005)

Key:
Tetranychus urticae = experiment: acaricidal effect for Tetranychus urticae (spray on string bean); assay type: in vivo; conditions: 500 ppm, female imagoes, survivors counted on second and seventh day after treatment, 25° C.
Protocol: 2) acaricidal effect for Tetranychus urticae Ten female imagoes Tetranychus urticae were set free on a string bean wherein first leaves had just developed. On the following day, the pesticidal solution, which was prepared by dissolving 5 mg of test compound (represented by the compound Nos. in the above Examples) in 0.5 ml of acetone containing Tween 20 (trade name) and then diluting it to the prescribed concentration (500 ppm) with Dain water diluted 5000-fold, was sprayed with spray gun in the amounts wherein the pesticidal solution dripped. The string bean was left in a temperature-controlled breeding room (25° C.). On the second and seventh day after treatment, the number of surviving Tetranychus urticae was examined. The rate of decrease was calculated by the following formula, and the result was shown in table 40. rate of decrease (%)=(1−(S2/(5.59×(10+(10+S1)/2+S1))))×100 • S1; the number of surviving imagoes on the second day after S2; the number of surviving imagoes on the seventh day after […]

Plutella xylostella = experiment: insecticidal effect for Plutella xylostella (cabbage leaf dip); assay type: in vivo; conditions: 100 ppm, second-instar larvae, fifth day after, 24° C.
Protocol: 1) insecticidal effect for Plutella xylostella One 7 to 8-leave stage foliage leaf of cabbage was cut off and dipped in a pesticidal solution for a few seconds, which was prepared by dissolving 5 mg of test compound (represented by the compound Nos. in the above Examples) in 0.5 ml of acetone containing Tween 20 (trade name) and then diluting it to the prescribed concentration (100 ppm) with Dain water diluted 5000-fold. After drying the pesticidal solution, the leaf was put into an ice cream cup (180 ml), and ten second-instar larvae of Plutella xylostella were set free. The cup was left in a temperature-controlled breeding room (24° C.). On the fifth day after, the number of surviving Plutella xylostella was examined. The rate of dead pests was calculated by the following formula, and the result was shown in table 39. rate of dead pests (%)=(number of dead pests/number of test pests)×100

Row | SMILES | Rate of decrease (%) (Tetranychus urticae) | Rate of dead pests (%) (Plutella xylostella) | melting point [°C]
1 | Cc1nc(-c2c(F)cccc2Cl)nn1-c1ccc(C(C)Oc2ncc(C(F)(F)F)cc2Cl)cc1 (racemic) [T-267] | 99 | 100 | 
2 | Cc1nc(-c2ccccc2F)cn1-c1ccc(COc2ncc(C(F)(F)F)cc2Cl)cc1 [I-63, 1-[4-[3-chloro-5-(trifluoromethyl)pyridin-2-yloxymethyl]phenyl]-4-(2-fluorophenyl)-2-methylimidazole] |  |  | 109
3 | Fc1ccccc1-c1cn(-c2ccc(COc3ncc(C(F)(F)F)cc3Cl)cc2)c(Cl)n1 [I-77] | 95 |  | 
4 | O=Cc1nc(-c2ccccc2F)cn1-c1ccc(COc2ncc(C(F)(F)F)cc2Cl)cc1 [I-82] | 99 |  | 
5 | Fc1cccc(Cl)c1-c1cc(Cl)n(-c2ccc(COc3ncc(C(F)(F)F)cc3Cl)cc2)n1 [P-21, 5-chloro-3-(2-chloro-6-fluorophenyl)-1-[4-(3-chloro-5-trifluoromethylpyridin-2-yloxymethyl)phenyl]pyrazole] | 99 | 100 | 
6 | Cc1nc(-c2c(F)cccc2Cl)nn1-c1ccc(COc2ccc(Cl)cc2)cc1 [T-3] | 98 | 100 | 
7 | Cc1nc(-c2c(F)cccc2Cl)nn1-c1ccc(COc2ccc(C(F)(F)F)cc2)cc1 [T-5] | 96 | 95 | 
8 | Cc1nc(-c2c(F)cccc2Cl)nn1-c1ccc(COc2ccc(Cl)cc2Cl)cc1 [T-9] | 99 | 100 | 
9 | Cc1nc(-c2c(F)cccc2Cl)nn1-c1ccc(COc2ccc(C(F)(F)F)cc2Cl)cc1 [T-12] | 98 | 100 | 
10 | Cc1nc(-c2c(F)cccc2Cl)nn1-c1ccc(COc2ccc(C(F)(F)F)cn2)cc1 [T-17] |  | 100 | 
11 | Cc1nc(-c2c(F)cccc2Cl)nn1-c1ccc(COc2ccc(Cl)cn2)cc1 [T-18] | 97 | 100 | 
12 | Cc1nc(-c2c(F)cccc2Cl)nn1-c1ccc(COc2ncc(Cl)cc2Cl)cc1 [T-20] | 98 | 100 | 
13 | Cc1nc(-c2c(F)cccc2Cl)nn1-c1ccc(COc2ncc(C(F)(F)F)cc2Cl)cc1 [T-21, 3-(2-chloro-6-fluorophenyl)-1-[4-(3-chloro-5-trifluoromethylpyridin-2-yloxymethyl)phenyl]-5-methyl-1H-1,2,4-triazole] | 100 | 100 | 
14 | Cc1nc(-c2c(F)cccc2Cl)nn1-c1ccc(COc2ncc(Cl)cn2)cc1 [T-24] | 97 |  | 
15 | Cc1nc(-c2c(F)cccc2Cl)nn1-c1ccc(COc2nnc(C(F)(F)F)s2)cc1 [T-25] | 99 |  | 
16 | Cc1nc(-c2c(F)cccc2Cl)nn1-c1ccc(COc2ncc(C(F)(F)F)cc2Cl)cn1 [T-28] | 98 | 100 | 
17 | Cc1nc(-c2c(F)cccc2Cl)nn1-c1ccc(COc2ncc(C(F)(F)F)cc2Cl)cc1Cl [T-30] | 99 | 100 | 
18 | Nc1nc(-c2c(F)cccc2Cl)nn1-c1ccc(COc2ncc(C(F)(F)F)cc2Cl)cc1 [T-40] | 97 | 95 | 
19 | Fc1cccc(Cl)c1-c1nc(Cl)n(-c2ccc(COc3ncc(C(F)(F)F)cc3Cl)cc2)n1 [T-43] | 100 | 100 | 
20 | COc1nc(-c2c(F)cccc2Cl)nn1-c1ccc(COc2ncc(C(F)(F)F)cc2Cl)cc1 [T-46] | 99 | 100 | 
21 | Fc1cccc(Cl)c1-c1nc(C(F)(F)F)n(-c2ccc(COc3ncc(C(F)(F)F)cc3Cl)cc2)n1 [T-47] | 100 | 100 | 
22 | CCc1nc(-c2c(F)cccc2Cl)nn1-c1ccc(COc2ncc(C(F)(F)F)cc2Cl)cc1 [T-48] | 99 | 100 | 
23 | N#Cc1nc(-c2c(F)cccc2Cl)nn1-c1ccc(COc2ncc(C(F)(F)F)cc2Cl)cc1 [T-52] | 97 | 100 | 
24 | Fc1cccc(Cl)c1-c1nc(CCl)n(-c2ccc(COc3ncc(C(F)(F)F)cc3Cl)cc2)n1 [T-53] | 99 |  | 
25 | FCc1nc(-c2c(F)cccc2Cl)nn1-c1ccc(COc2ncc(C(F)(F)F)cc2Cl)cc1 [T-54] | 98 |  | 
26 | COCc1nc(-c2c(F)cccc2Cl)nn1-c1ccc(COc2ncc(C(F)(F)F)cc2Cl)cc1 [T-56] | 98 | 100 | 

Row | SMILES | Rate of decrease (%) (Tetranychus urticae) | Rate of dead pests (%) (Plutella xylostella) | melting point [°C]
27 | Cc1nc(-c2c(F)cccc2F)nn1-c1ccc(COc2ccc(C(F)(F)F)cn2)cc1 [T-66] |  | 95 | 
28 | Cc1cccc(C)c1-c1nc(C)n(-c2ccc(COc3ncc(C(F)(F)F)cc3Cl)cc2)n1 [T-74] | 97 | 100 | 
29 | FC(F)(F)c1cnc(OCc2ccc(-n3cnc(-c4cc(Cl)nc(Cl)c4)n3)cc2)c(Cl)c1 [T-75] | 99 |  | 
30 | Fc1cccc(F)c1-c1ncn(-c2ccc(COc3ncc(C(F)(F)F)cc3Cl)cc2)n1 [T-76] | 96 |  | 
31 | Fc1cccc(F)c1-c1nc(Cl)n(-c2ccc(COc3ncc(C(F)(F)F)cc3Cl)cc2)n1 [T-78] | 98 | 100 | 
32 | CCc1nc(-c2c(F)cccc2F)nn1-c1ccc(COc2ncc(C(F)(F)F)cc2Cl)cc1 [T-88] | 98 | 95 | 
33 | CC(C)c1nc(-c2c(F)cccc2Cl)nn1-c1ccc(COc2ncc(C(F)(F)F)cc2Cl)cc1 [T-92] | 98 |  | 
34 | Fc1cccc(Cl)c1-c1nc(C2CC2)n(-c2ccc(COc3ncc(C(F)(F)F)cc3Cl)cc2)n1 [T-93] | 97 |  | 
35 | C=Cc1nc(-c2c(F)cccc2Cl)nn1-c1ccc(COc2ncc(C(F)(F)F)cc2Cl)cc1 [T-106] | 97 | 100 | 
36 | O=Cc1nc(-c2c(F)cccc2Cl)nn1-c1ccc(COc2ncc(C(F)(F)F)cc2Cl)cc1 [T-107] | 100 | 100 | 
37 | Fc1cccc(Cl)c1-c1nc(C(F)F)n(-c2ccc(COc3ncc(C(F)(F)F)cc3Cl)cc2)n1 [T-120] | 99 | 100 | 
38 | Cc1nc(-c2cccnc2Cl)nn1-c1ccc(COc2ncc(C(F)(F)F)cc2Cl)cc1 [T-130] | 98 |  | 
39 | Cc1nc(-c2c(Cl)cc(Cl)cc2Cl)nn1-c1ccc(COc2ncc(C(F)(F)F)cc2Cl)cc1 [T-131] | 100 |  | 
40 | C#Cc1nc(-c2c(F)cccc2Cl)nn1-c1ccc(COc2ncc(C(F)(F)F)cc2Cl)cc1 [T-132] | 100 |  | 
41 | Cc1nc(-c2c(F)cccc2C(F)(F)F)nn1-c1ccc(COc2ncc(C(F)(F)F)cc2Cl)cc1 [T-133] | 99 | 95 | 
42 | Cc1nc(-c2c(F)c(F)cc(F)c2F)nn1-c1ccc(COc2ncc(C(F)(F)F)cc2Cl)cc1 [T-134] | 100 |  | 
43 | Cc1nc(-c2c(F)cc(F)cc2F)nn1-c1ccc(COc2ncc(C(F)(F)F)cc2Cl)cc1 [T-135] | 96 |  | 
44 | Cc1nc(-c2ccccc2OC(F)(F)F)nn1-c1ccc(COc2ncc(C(F)(F)F)cc2Cl)cc1 [T-136] | 99 |  | 
45 | Cc1nc(-c2c(F)ccc(Cl)c2F)nn1-c1ccc(COc2ncc(C(F)(F)F)cc2Cl)cc1 [T-137] | 99 |  | 
46 | Cc1nc(-c2c(F)ccc(F)c2Cl)nn1-c1ccc(COc2ncc(C(F)(F)F)cc2Cl)cc1 [T-138] | 99 |  | 
47 | Cc1nc(-c2c(F)cccc2Cl)nn1-c1ccc(COc2ncc(C(F)(F)F)cn2)cc1 [T-139] | 97 |  | 
48 | COc1cccc(OC)c1-c1nc(C)n(-c2ccc(COc3ncc(C(F)(F)F)cc3Cl)cc2)n1 [T-140] | 99 |  | 
49 | COC(=O)c1nc(-c2c(F)cccc2Cl)nn1-c1ccc(COc2ncc(C(F)(F)F)cc2Cl)cc1 [T-143] | 98 |  | 
50 | CC1=CN(Cc2ccc(COc3ncc(C(F)(F)F)cc3Cl)cc2)NC(c2c(F)cccc2Cl)=N1 [T-171, 3-(2-chloro-6-fluorophenyl)-1-[4-(3-chloro-5-trifluoromethyl-2-pyridyloxymethyl)phenylmethyl]-5-methyl-1H-1,2,4-triazine] | 99 |  | 
51 | Cc1nc(-c2c(F)cccc2Cl)nn1Cc1ccc(COc2ncc(C(F)(F)F)cc2Cl)cc1 [T-172] | 98 |  | 
52 | Cc1nc(-c2c(F)cccc2Cl)nn1-c1ccc(Oc2ncc(C(F)(F)F)cc2Cl)cc1 [T-264] | 98 |  | 
